Here are results for 15 molecules from patent publication US20260232662A1, “MIR-124 INDUCER, AND PREPARATION METHOD THEREFOR AND USE THEREOF” (NANJING SYNNOCARE PHARMACEUTICAL TECHNOLOGY CO., LTD., priority 2023, published 2026).

The test has as its system miR-124. The test can be described thus: Induction of miR-124 expression in PBMC cells (qPCR). It counts as cell-based. The settings on record: Homo sapiens, 72 h, 0.1 μM compound, human PBMCs stimulated with PMA/ionomycin, miR-191 reference gene, read-out: miR-124 expression, Fold change vs DMSO. As to the method: This study evaluated the ability of the compound of the present invention to influence miR-124 transcriptional activity in vitro. The experiment analyzed miR-124 expression in human PBMCs (Sailybio) using quantitative PCR (qPCR).
Thawed human PBMCs (1 mL) were added to 19 mL of culture medium (RPMI1640+10% hFBS+1‰ 2-mercaptoethanol) and the PBMCs were incubated in a cell culture incubator for 30 minutes. The PBMCs were collected and the cells (3.0*10^6 cells/well/3 mL) were resuspended in medium containing PMA (10 ng/mL; Invivogen) and ionomycin (200 ng/mL; Invivogen). The cells were incubated in a 6-well plate for 48 hours. Diluted compound was added to the cells to achieve a final concentration of 0.1 μM. After 72 hours, the samples were centrifuged and the cells were collected.
Total miRNA was extracted from the cells using the MiPure Cell/Tissue miRNA Kit (Vazyme) according to the manufacturer's instructions, followed by purification. The purified samples were treated with genomic DNA elimination buffer, and reverse transcription was performed using a GeneAmp PCR System. The resulting cDNA was subjected to quantitative real-time PCR (qPCR) analysis on a QuantStudio™ 7 Flex Real-Time PCR System. Data analysis was performed using the QuantStudio 7 software with default settings to automatically determine Ct values, and the results were exported. In this assay, miR-191 was used as the reference gene, and the DMSO-treated group served as the control. The relative expression of miR-124 was calculated using the following formula: […]
For orientation: Real-time PCR tracks product formation cycle by cycle.

With `FC(F)(F)Oc1ccc(Nc2nc3ccc(Br)c(Cl)c3n3ccnc23)cc1` [Compound B18, 8-bromo-9-chloro-N-(4-(trifluoromethoxy)phenyl)imidazolo [1,2-a]quinoxalin-4-amine], the fold induction at 0.1 µM was 22.6.
For `FC(F)(F)Oc1ccc(Nc2nc3cc(Cl)cc(Cl)c3n3ccnc23)cc1` [Compound B21, 7,9-dichloro-N-(4-(trifluoromethoxy)phenyl)imidazolo [1,2-a]quinoxalin-4-amine], the fold induction at 0.1 µM is 35.2.
`Fc1cc(Cl)c2c(c1)nc(Nc1ccc(OC(F)(F)F)cc1)c1nccn12` [Compound B22, 9-chloro-7-fluoro-N-(4-(trifluoromethoxy)phenyl)imidazolo [1,2-a]quinoxalin-4-amine]: the fold induction at 0.1 µM is 32.5.
In the case of `FC(F)(F)Oc1ccc(Nc2nc3cc(Br)cc(Cl)c3n3ccnc23)cc1` [Compound B23, 7-bromo-9-Chloro-N-(4-(trifluoromethoxy)phenyl)imidazolo [1,2-a]quinoxalin-4-amine], the fold induction at 0.1 µM is 25.2.
For `FC(F)(F)Oc1ccc(Nc2nc3cc(Cl)c(Cl)cc3n3ccnc23)cc1` [Compound B24, 7,8-dichloro-N-(4-(trifluoromethoxy)phenyl)imidazolo [1,2-a]quinoxalin-4-amine], the fold induction at 0.1 µM was found to be 26.7.
The same measure for `Fc1cc2nc(Nc3ccc(OC(F)(F)F)cc3)c3nccn3c2cc1Cl` [Compound B25, 8-chloro-7-fluoro-N-(4-(trifluoromethoxy)phenyl)imidazolo [1,2-a]quinoxalin-4-amine]: 23.4.
The same measure for `Fc1cc(F)c2c(c1)nc(Nc1ccc(OC(F)(F)F)cc1)c1nccn12` [Compound B30, 7,9-difluoro-N-(4-(trifluoromethoxy)phenyl)imidazolo [1,2-a]quinoxalin-4-amine]: 22.5; for `Fc1cc(Cl)cc2nc(Nc3ccc(OC(F)(F)F)cc3)c3nccn3c12` [Compound B31, 7-chloro-9-fluoro-N-(4-(trifluoromethoxy)phenyl)imidazolo [1,2-a]quinoxalin-4-amine]: 24.4.
With `Fc1cc(Br)cc2nc(Nc3ccc(OC(F)(F)F)cc3)c3nccn3c12` [Compound B32, 7-bromo-9-fluoro-N-(4-(trifluoromethoxy)phenyl)imidazolo [1,2-a]quinoxalin-4-amine], the fold induction at 0.1 µM came out at 19.7.
`FC(F)(F)c1ccc(Nc2nc3cccc(Cl)c3n3ccnc23)cc1` [Compound B49, 9-chloro-N-(4-(trifluoromethyl)phenyl)imidazolo [1,2-a]quinoxalin-4-amine]: the fold induction at 0.1 µM was determined as 32.
With `FC(F)(F)Sc1ccc(Nc2nc3cccc(Cl)c3n3ccnc23)cc1` [Compound B50, 9-chloro-N-(4-(trifluoromethylthio)phenyl)imidazolo [1,2-a]quinoxalin-4-amine], the fold induction at 0.1 µM worked out at 21.3.
Turning to `FC1(F)Oc2ccc(Nc3nc4cccc(Cl)c4n4ccnc34)cc2O1` [Compound B52, 9-chloro-N-(2,2-difluorobenzo[d] [1,3]dihydroxy-5-yl) imidazolo[1,2-a]quinoxalin-4-amine], the fold induction at 0.1 µM stood at 30.2.
As for `Fc1cc(Nc2nc3cccc(Cl)c3n3ccnc23)ccc1C(F)(F)F` [Compound B53, 9-chloro-N-(3-Fluoro-4-(trifluoromethyl)phenyl)imidazolo [1,2-a]quinoxalin-4-amine], the fold induction at 0.1 µM is 36.8.
For `Fc1cc(Nc2nc3cccc(Cl)c3n3ccnc23)ccc1OC(F)(F)F` [Compound B55, 9-chloro-N-(3-Fluoro-4-(trifluoromethoxy)phenyl)imidazolo [1,2-a]quinoxalin-4-amine], the fold induction at 0.1 µM amounted to 36.3.
In the case of `FC(F)(F)Oc1ccc(Nc2nc3cccc(Cl)c3n3ccnc23)cc1Cl` [Compound B56, 9-chloro-N-(3-chloro-4-(trifluoromethoxy)phenyl)imidazolo [1,2-a]quinoxalin-4-amine], the fold induction at 0.1 µM is 40.7.
